Measurements: US4579866A, “Phenylacetamides as anti-allergy, anti-asthma and anti-inflammatory agents” (USV Pharmaceutical Corp., priority 1984, dated 1986)

Tests used:
HUMAN 5 LIPOXYGENASE = target: T1, HUMAN 5 LIPOXYGENASE (Homo sapiens, UniProt P09917); experiment: Biosynthesis of 5-HETE by human polymorphonuclear leukocytes in vitro (inhibition of human 5-lipoxygenase); format: cell-based; settings: human neutrophils, A23187, 3 minutes at 30° C.; concentration at which 50% inhibition is observed; read-out: INHIBITION OF HUMAN 5 LIPOXYGENASE, I50
T1 construct: A suspension of human neutrophils in buffer; endogenous in cells; host or cells: human neutrophils (PMNs) from venous blood of healthy volunteers
T1 sequence (P09917 1-674): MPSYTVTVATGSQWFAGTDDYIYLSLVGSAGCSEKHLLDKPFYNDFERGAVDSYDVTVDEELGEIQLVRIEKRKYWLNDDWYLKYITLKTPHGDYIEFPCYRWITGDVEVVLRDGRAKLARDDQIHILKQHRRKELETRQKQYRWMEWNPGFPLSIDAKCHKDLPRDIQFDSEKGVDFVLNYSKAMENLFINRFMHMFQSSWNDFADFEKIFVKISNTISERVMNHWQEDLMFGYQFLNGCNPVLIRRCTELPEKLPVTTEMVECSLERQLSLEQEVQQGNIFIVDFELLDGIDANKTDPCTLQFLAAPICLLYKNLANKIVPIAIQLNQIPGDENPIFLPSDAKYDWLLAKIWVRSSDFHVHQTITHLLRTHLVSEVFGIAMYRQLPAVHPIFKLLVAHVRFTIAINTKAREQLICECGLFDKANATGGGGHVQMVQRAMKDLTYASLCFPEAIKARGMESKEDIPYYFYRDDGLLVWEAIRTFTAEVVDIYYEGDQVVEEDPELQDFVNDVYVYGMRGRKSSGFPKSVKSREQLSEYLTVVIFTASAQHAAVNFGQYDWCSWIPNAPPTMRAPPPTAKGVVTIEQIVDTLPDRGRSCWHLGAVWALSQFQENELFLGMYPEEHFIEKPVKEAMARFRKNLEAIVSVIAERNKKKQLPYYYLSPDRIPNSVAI
Protocol: Protocol for the Biosynthesis of 5-HETE (5(S)-Hydroxyeicosatetraenoic Acid) by Human Polymorphonuclear Leukocytes In Vitro
(A) Isolation of Human Neutrophils
Freshly drawn venous blood from healthy human volunteers is mixed with 2 mM ethylenediamine tetraacetic acid, and is sedimented at 1×g over 6% dextran-saline. The leukocyte layer is aspirated, and the cells are concentrated by centrifugation and are layered over stacked Percoll® solutions, having densities of 1.072, 1.082 and 1.100, respectively. PMNs are isolated at the interface between the two densest layers after centrifugation at 400×g. Contaminating red blood cells are lysed by a short treatment of 0.16M ammonium chloride.
A suspension of human neutrophils in buffer is incubated for 3 minutes at 30° C. with (^14 C)-arachidonic acid (AA) and calcium ionophore A23187. Citric Acid (2M)/NDGA*(10 mM) is used to quench the reaction. Following the addition of a trace amount of (^3 H)-5-HETE together with an excess of unlabeled 5-HETE to each tube, the mixture is extracted with chloroform/methanol. The organic layer is washed with dilute hydrochloric acid and the total volume is transferred to glass tubes and dried in vacuo. The residue is dissolved in a small volume of chloroform and is spotted on silica gel TLC sheets, which are developed with an ethyl acetate/iso-octane/water/acetic acid solvent system (11/5/10/1 v/v). The 5-HETE spots are visualized under UV light, cut out and placed in scintillation vials for quantitation of radioactivity. After adjusting for the extraction efficiency, the amount (pmole) of (^14 C)-5-HETE in each of the tubes is calculated. The net pmoles of 5-HETE are obtained by subtracting the pmole of 5-HETE in the tubes containing buffer alone (blank) from the pmoles of 5-HETE in the tubes containing […]. The ability of the test compound to modulate the activity of this enzyme is determined by a decrease or increase in the net amount of 5-HETE produced. This assay is a modification of that described by Bach and Brashler for rat peritoneal cells: Bach, M., Brashler, J.: Ionophore A23187-Induced Production of SRS-A by Rat Peritoneal Cells In Vitro: Evidence for Production by Mononuclear Cells. J. Immunol. 120 998-1005 (1978).
*NDGA-nordihydroguaiaretic acid
(§1) If the percentage of inhibition exceeds 50%, the compounds are then evaluated in terms of response over a range of concentrations. From a plot of response against concentration, the I50 value is obtained. The I50 value is the concentration at which 50% inhibition is observed.

LTC4 = experiment: Antagonism of leukotriene C4 binding (guinea pig peripheral lung strips, contraction); format: cell-based; settings: Cavia porcellus, leukotriene C4 usually 0.2 nM, 37° C., read-out: ANTAGONISM OF LTC4 BINDING, I50
Protocol: Protocol for Antagonism of Leukotrines C-4 Binding
Peripheral strips of guinea pig lungs are prepared and hung in tissue baths according to the procedure described by Drazen et al. (Proc. Nat'l. Acad. Sci., U.S.A. 77, 4354-4358, 1980). Male guinea pigs (Charles River, 250-400 g) are sacrificed by cervical dislocation and their lungs rapidly removed. The individual lobes are dissected free and rinsed in Assay Buffer (118 mM NaCl, 5.4 mM KCl, 2.5 mM CaCl2, 25 mM […], 1 mM MgSO4, 1 mM NaH2 PO4, 11 mM glucose) which is continuously aerated with 95% oxygen/5% carbon dioxide. After the lobes are extensively rinsed, a strip of lung tissue, approximately 2 mm thick and 5-8 cm long, is cut off the sharpest and most peripheral portion of each lobe. The peripheral edge is cut almost completely around the outside of the lobe so that a U-shaped strip is obtained. These strips are rinsed in Assay Buffer and then connected with surgical silk thread to the support rods of the water jacketed tissue baths (10 ml chambers). The other ends of the strips are connected to Gould UC3 pressure transducers which had been previously calibrated. The tissue baths are aerated with 95% oxygen/5% carbon dioxide and maintained at 37° C. The tension on these strips are adjusted to 500 mg. The tissues are initially washed with fresh buffer every 5-10 minutes for about 30 minutes and thereafter washed with fresh assay buffer at least every 20 minutes.
After the tissue had been repeatedly washed and allowed to equilibrate in the tissue baths, they are challenged with 1 μM histamine to standardize the contractions for each tissue.
Responses of each tissue to a predetermined concentration (usually 0.2 nM) of leukotriene C4 are then obtained. Compounds are then tested for their ability to antagonize to leukotriene C4 immediately upon challenge.
as §1

IC50 (HUMAN 5 LIPOXYGENASE) [µM] | IC50 (LTC4) [µM] | SMILES
6 | 9 | CCCOc1ccc(CC(=O)N[C@H](Cc2ccccc2)C(=O)OC)cc1Cl [3-Chloro-4-n-propyloxyphenylacetyl-D-phenylalanine methyl ester]
1.5 | 12 | C#CCOc1ccc(CC(=O)N[C@H](Cc2ccccc2)C(=O)OC)cc1Cl [3-Chloro-4-propargyloxyphenylacetyl-D-phenylalanine methyl ester]
10 | 5 | CN(CC(O)c1ccccc1)C(=O)Cc1ccc(OCCc2ccccc2)c(Cl)c1 (centres unmarked) [N--[3-Chloro-4-phenylethyloxyphenylacetyl]-N--methyl-2-hydroxy-2-phenyl-ethyl-amine]
2 | 3 | C=CCOc1ccc(CC(=O)N(C)CCc2ccccc2)cc1Cl [N--[4-Alloyoxy-3-chlorophenylacetyl]-N--methyl-2-phenylethylamine]
